# Source: ChEMBL document CHEMBL5346892, “Design and synthesis of benzochromene derivatives as AcrB inhibitors for the reversal of bacterial multidrug resistance” (Eur J Med Chem, 2023)
# Calls of active or inactive are those of the source. No cut-off for these calls is given here. Peptide text beside a SMILES is read from it.
# Legend:
# Escherichia coli [1] = assay: Synergistic antibacterial activity against wild type Escherichia coli BW25113 assessed as levofloxacin MIC at 64 microg/ml incubated for 18 hrs by broth dilution assay; format: functional; settings: dose 64 µg/ml
# Escherichia coli [2] = assay: Synergistic antibacterial activity against wild type Escherichia coli BW25113 assessed as levofloxacin MIC at 128 microg/ml incubated for 18 hrs by broth dilution assay; format: functional; settings: dose 128 µg/ml
# Escherichia coli [3] = assay: Synergistic antibacterial activity against wild type Escherichia coli BW25113 assessed as minocycline MIC at 128 microg/ml incubated for 18 hrs by broth dilution assay; format: functional; settings: dose 128 µg/ml
# Escherichia coli [4] = assay: Synergistic antibacterial activity against wild type Escherichia coli BW25113 assessed as erythromycin MIC at 128 microg/ml incubated for 18 hrs by broth dilution assay; format: functional; settings: dose 128 µg/ml
# Escherichia coli [5] = assay: Synergistic antibacterial activity against wild type Escherichia coli BW25113 assessed as minocycline MIC at 16 microg/ml incubated for 18 hrs by broth dilution assay; format: functional; settings: dose 16 µg/ml
# Escherichia coli [6] = assay: Synergistic antibacterial activity against wild type Escherichia coli BW25113 assessed as levofloxacin MIC at 16 microg/ml incubated for 18 hrs by broth dilution assay; format: functional; settings: dose 16 µg/ml
# Escherichia coli [7] = assay: Synergistic antibacterial activity against wild type Escherichia coli BW25113 assessed as erythromycin MIC at 32 microg/ml incubated for 18 hrs by broth dilution assay; format: functional; settings: dose 32 µg/ml
# Escherichia coli [8] = assay: Synergistic antibacterial activity against wild type Escherichia coli BW25113 assessed as levofloxacin MIC at 8 microg/ml incubated for 18 hrs by broth dilution assay; format: functional; settings: dose 8 µg/ml
# Escherichia coli [9] = assay: Synergistic antibacterial activity against wild type Escherichia coli BW25113 assessed as erythromycin MIC at 8 microg/ml incubated for 18 hrs by broth dilution assay; format: functional; settings: dose 8 µg/ml
# Escherichia coli [10] = assay: Synergistic antibacterial activity against wild type Escherichia coli BW25113 assessed as erythromycin MIC at 64 microg/ml incubated for 18 hrs by broth dilution assay; format: functional; settings: dose 64 µg/ml
# Escherichia coli [11] = assay: Synergistic antibacterial activity against wild type Escherichia coli BW25113 assessed as minocycline MIC at 8 microg/ml incubated for 18 hrs by broth dilution assay; format: functional; settings: dose 8 µg/ml
# Escherichia coli [12] = assay: Synergistic antibacterial activity against wild type Escherichia coli BW25113 assessed as erythromycin MIC at 16 microg/ml incubated for 18 hrs by broth dilution assay; format: functional; settings: dose 16 µg/ml
# Escherichia coli [13] = assay: Synergistic antibacterial activity against wild type Escherichia coli BW25113 assessed as levofloxacin MIC at 32 microg/ml incubated for 18 hrs by broth dilution assay; format: functional; settings: dose 32 µg/ml
# Escherichia coli [14] = assay: Synergistic antibacterial activity against wild type Escherichia coli BW25113 assessed as minocycline MIC at 64 microg/ml incubated for 18 hrs by broth dilution assay; format: functional; settings: dose 64 µg/ml
# Escherichia coli [15] = assay: Synergistic antibacterial activity against wild type Escherichia coli BW25113 assessed as minocycline MIC at 32 microg/ml incubated for 18 hrs by broth dilution assay; format: functional; settings: dose 32 µg/ml
# Escherichia coli [16] = assay: Synergistic antibacterial activity against wild type Escherichia coli BW25113 assessed as erythromycin MIC at 64 microg/ml incubated for 18 hrs in presence of colistin by broth dilution assay; format: functional; settings: dose 64 µg/ml
# Escherichia coli [17] = assay: Synergistic antibacterial activity against wild type Escherichia coli BW25113 assessed as levofloxacin MIC at 32 microg/ml incubated for 18 hrs in presence of colistin by broth dilution assay; format: functional; settings: dose 32 µg/ml
# Escherichia coli [18] = assay: Synergistic antibacterial activity against wild type Escherichia coli BW25113 assessed as minocycline MIC at 8 microg/ml incubated for 18 hrs in presence of colistin by broth dilution assay; format: functional; settings: dose 8 µg/ml
# [19] = Hemolytic activity in mouse RBC assessed as hemolysis at 4 to 256 microg/ml incubated for 1 hr by microplate reader analysis; format: toxicity, cell-based, Erythrocyte; settings: mouse red blood cells (erythrocytes), at 4 to 256 µg/mL, dose 4-256 µg/ml, read-out: Activity
# Escherichia coli [20] = assay: Synergistic antibacterial activity against wild type Escherichia coli BW25113 assessed as levofloxacin MIC at 8 microg/ml incubated for 18 hrs in presence of colistin by broth dilution assay; format: functional; settings: dose 8 µg/ml
# Escherichia coli [21] = assay: Synergistic antibacterial activity against wild type Escherichia coli BW25113 assessed as minocycline MIC at 4 microg/ml incubated for 18 hrs in presence of colistin by broth dilution assay; format: functional; settings: dose 4 µg/ml
# Escherichia coli [22] = assay: Synergistic antibacterial activity against wild type Escherichia coli BW25113 assessed as erythromycin MIC at 32 microg/ml incubated for 18 hrs in presence of colistin by broth dilution assay; format: functional; settings: dose 32 µg/ml
# [23] = biological target: T1, Multidrug efflux pump subunit AcrB (Escherichia coli (strain K12)) (UniProt P31224); assay: Inhibition of Escherichia coli BW25113 AcrB assessed as inhibition of nile red efflux at 50 uM incubated for 15 mins
# T1 sequence (whole entry): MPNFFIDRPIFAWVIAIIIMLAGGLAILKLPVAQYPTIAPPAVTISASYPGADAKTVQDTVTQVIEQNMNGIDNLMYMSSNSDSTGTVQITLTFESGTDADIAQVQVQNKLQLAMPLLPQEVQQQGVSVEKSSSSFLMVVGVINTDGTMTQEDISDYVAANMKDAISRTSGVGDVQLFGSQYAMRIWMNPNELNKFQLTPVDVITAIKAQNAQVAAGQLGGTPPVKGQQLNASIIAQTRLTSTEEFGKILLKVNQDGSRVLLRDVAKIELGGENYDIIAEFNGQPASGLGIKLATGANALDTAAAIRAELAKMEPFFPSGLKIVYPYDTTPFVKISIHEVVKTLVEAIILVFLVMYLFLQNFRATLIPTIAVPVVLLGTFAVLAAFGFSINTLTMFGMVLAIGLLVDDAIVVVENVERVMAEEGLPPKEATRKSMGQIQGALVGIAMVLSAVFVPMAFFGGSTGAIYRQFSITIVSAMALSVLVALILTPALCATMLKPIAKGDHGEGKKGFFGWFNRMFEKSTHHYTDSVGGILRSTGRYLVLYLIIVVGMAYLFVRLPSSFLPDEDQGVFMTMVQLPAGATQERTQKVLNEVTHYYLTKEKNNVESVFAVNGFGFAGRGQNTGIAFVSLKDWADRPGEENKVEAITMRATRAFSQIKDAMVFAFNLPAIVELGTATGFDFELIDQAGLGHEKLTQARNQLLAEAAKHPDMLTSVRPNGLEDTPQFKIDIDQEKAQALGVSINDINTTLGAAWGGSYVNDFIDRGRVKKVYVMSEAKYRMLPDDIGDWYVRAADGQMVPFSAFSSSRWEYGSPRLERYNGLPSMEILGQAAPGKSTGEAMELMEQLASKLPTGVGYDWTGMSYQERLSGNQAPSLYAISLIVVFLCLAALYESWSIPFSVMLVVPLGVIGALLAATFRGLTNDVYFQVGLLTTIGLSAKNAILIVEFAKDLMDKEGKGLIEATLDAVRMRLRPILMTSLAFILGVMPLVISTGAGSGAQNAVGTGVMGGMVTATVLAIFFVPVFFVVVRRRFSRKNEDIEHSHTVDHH
# [24] = Toxicity in Caenorhabditis elegans assessed as survival rate at 128 microg/ml measured after 72 hrs by light microscopic analysis; settings: at 128 µg/mL
# Escherichia coli [25] = assay: Synergistic antibacterial activity against wild type Escherichia coli BW25113 assessed as levofloxacin MIC at 64 microg/ml incubated for 18 hrs in presence of colistin by broth dilution assay; format: functional; settings: dose 64 µg/ml
# Escherichia coli [26] = assay: Synergistic antibacterial activity against wild type Escherichia coli BW25113 assessed as levofloxacin MIC at 16 microg/ml incubated for 18 hrs in presence of colistin by broth dilution assay; format: functional; settings: dose 16 µg/ml
# Escherichia coli [27] = assay: Synergistic antibacterial activity against wild type Escherichia coli BW25113 assessed as minocycline MIC at 32 microg/ml incubated for 18 hrs in presence of colistin by broth dilution assay; format: functional; settings: dose 32 µg/ml
# Escherichia coli [28] = assay: Synergistic antibacterial activity against wild type Escherichia coli BW25113 assessed as minocycline MIC at 64 microg/ml incubated for 18 hrs in presence of colistin by broth dilution assay; format: functional; settings: dose 64 µg/ml
# Escherichia coli [29] = assay: Synergistic antibacterial activity against wild type Escherichia coli BW25113 assessed as fold decrease in levofloxacin MIC at 8 microg/ml incubated for 18 hrs by checkboard based microplate reader analysis; format: functional; settings: dose 8 µg/ml
# Escherichia coli [30] = assay: Synergistic antibacterial activity against wild type Escherichia coli BW25113 assessed as erythromycin MIC at 16 microg/ml incubated for 18 hrs in presence of colistin by broth dilution assay; format: functional; settings: dose 16 µg/ml
# Escherichia coli [31] = assay: Synergistic antibacterial activity against wild type Escherichia coli BW25113 assessed as erythromycin MIC at 8 microg/ml incubated for 18 hrs in presence of colistin by broth dilution assay; format: functional; settings: dose 8 µg/ml
# Cell membrane = assay: Induction of inner membrane permeabilization in Escherichia coli BW25113 assessed as increase in fluorescence intensity at 64 microg/ml incubated for 10 mins by DiOC2 dye based fluorimeter analysis; format: subcellular; settings: dose 64.0 µg/ml
# Escherichia coli [32] = assay: Synergistic antibacterial activity against wild type Escherichia coli BW25113 assessed as minocycline MIC at 16 microg/ml incubated for 18 hrs in presence of colistin by broth dilution assay; format: functional; settings: dose 16 µg/ml
# Escherichia coli [33] = assay: Synergistic antibacterial activity against wild type Escherichia coli BW25113 assessed as fold decrease in erythromycin MIC at 128 microg/ml incubated for 18 hrs by checkboard based microplate reader analysis; format: functional; settings: dose 128 µg/ml
# Escherichia coli [34] = assay: Synergistic antibacterial activity against wild type Escherichia coli BW25113 assessed as minocycline MIC at 128 microg/ml incubated for 18 hrs in presence of colistin by broth dilution assay; format: functional; settings: dose 128 µg/ml
# Escherichia coli [35] = assay: Synergistic antibacterial activity against wild type Escherichia coli BW25113 assessed as erythromycin MIC at 128 microg/ml incubated for 18 hrs in presence of colistin by broth dilution assay; format: functional; settings: dose 128 µg/ml
# Escherichia coli [36] = assay: Synergistic antibacterial activity against wild type Escherichia coli BW25113 assessed as levofloxacin MIC at 128 microg/ml incubated for 18 hrs in presence of colistin by broth dilution assay; format: functional; settings: dose 128 µg/ml
SMILES,MIC (Escherichia coli [1]),MIC (Escherichia coli [2]),MIC (Escherichia coli [3]),MIC (Escherichia coli [4]),MIC (Escherichia coli [5]),MIC (Escherichia coli [6]),MIC (Escherichia coli [7]),MIC (Escherichia coli [8]),MIC (Escherichia coli [9]),MIC (Escherichia coli [10]),MIC (Escherichia coli [11]),MIC (Escherichia coli [12]),MIC (Escherichia coli [13]),MIC (Escherichia coli [14]),MIC (Escherichia coli [15]),MIC (Escherichia coli [16]),MIC (Escherichia coli [17]),MIC (Escherichia coli [18]),hemolysis at 1 h [19],"survival at 72 h, 128 microg/ml [24]",also measured
N=C(N)NCCC[C@H](NC(=O)[C@@H](N)Cc1ccccc1)C(=O)Nc1ccc2ccccc2c1 [PABETAN] (HELM PEPTIDE1{F.R.[c1ccc2cc(N[*:1])ccc2c1]}$$$$V2.0),0.008 µg/mL,0.001 µg/mL,0.25 µg/mL,2 µg/mL,0.5 µg/mL,0.008 µg/mL,4 µg/mL,0.016 µg/mL,16 µg/mL,4 µg/mL,0.5 µg/mL,8 µg/mL,0.008 µg/mL,0.5 µg/mL,0.5 µg/mL,–,–,–,–,–,–
CC1(C)CCc2c(C(=O)N3CCOCC3)cc3c(OCCCSc4ccc(N)cc4)cccc3c2O1,0.008 µg/mL,0.008 µg/mL,1 µg/mL,64 µg/mL,1 µg/mL,0.008 µg/mL,64 µg/mL,0.008 µg/mL,64 µg/mL,64 µg/mL,–,64 µg/mL,0.008 µg/mL,1 µg/mL,1 µg/mL,8 µg/mL,0.016 µg/mL,1 µg/mL,< 5%,90%,MIC (Escherichia coli [20]): 0.032 µg/mL; MIC (Escherichia coli [21]): 1 µg/mL; MIC (Escherichia coli [22]): 8 µg/mL; inhibition [23]: Active; MIC (Escherichia coli [25]): 0.008 µg/mL; MIC (Escherichia coli [26]): 0.016 µg/mL; MIC (Escherichia coli [27]): 1 µg/mL; MIC (Escherichia coli [28]): 0.5 µg/mL; fold change (FC) (Escherichia coli [29]): 4; MIC (Escherichia coli [30]): 8 µg/mL; MIC (Escherichia coli [31]): 8 µg/mL; Activity (Cell membrane): inactive; MIC (Escherichia coli [32]): 1 µg/mL
CC1(C)CCc2c(C(=O)N3CCOCC3)cc3c(OCCOc4ccc([N+](=O)[O-])cc4)cccc3c2O1,0.032 µg/mL,0.032 µg/mL,2 µg/mL,16 µg/mL,2 µg/mL,0.032 µg/mL,64 µg/mL,0.032 µg/mL,64 µg/mL,32 µg/mL,2 µg/mL,64 µg/mL,0.032 µg/mL,2 µg/mL,2 µg/mL,8 µg/mL,0.032 µg/mL,1 µg/mL,< 5%,90%,fold change (FC) (Escherichia coli [33]): 4; MIC (Escherichia coli [34]): 0.5 µg/mL; MIC (Escherichia coli [35]): 4 µg/mL; MIC (Escherichia coli [20]): 0.032 µg/mL; MIC (Escherichia coli [22]): 8 µg/mL; MIC (Escherichia coli [25]): 0.032 µg/mL; MIC (Escherichia coli [26]): 0.032 µg/mL; MIC (Escherichia coli [27]): 1 µg/mL; MIC (Escherichia coli [28]): 0.5 µg/mL; MIC (Escherichia coli [30]): 8 µg/mL; MIC (Escherichia coli [31]): 8 µg/mL; MIC (Escherichia coli [36]): 0.032 µg/mL; Activity (Cell membrane): inactive; MIC (Escherichia coli [32]): 1 µg/mL
CC1(C)S[C@@H]2[C@H](NC(=O)[C@H](N)c3ccccc3)C(=O)N2[C@H]1C(=O)O [AMPICILLIN],–,–,–,–,–,–,–,–,–,–,–,–,–,–,–,–,–,–,–,99%,–
